Measured values as given in US11634479B2, “Immunoassay for collagen type VI” (Nordic Bioscience A/S, priority 2015, dated 2023).

How the values were obtained:
[1] = BALLETS phase III clinical study: adverse event profile in subgroups of baseline endotrophin; assay type: in vivo, subjects with type 2 diabetes on stable insulin therapy
Excerpt: Testing Strategies) study was a phase III, randomized, double-blind, parallel-group, placebo and active comparator-controlled clinical study to determine the efficacy and safety of six months' treatment of balaglitazone or pioglitazone in subjects with type 2 diabetes on stable insulin therapy. The baseline demographics, CONSORT diagram as well as efficacy and safety data have previously been published (Henriksen, 2011). In the current study we used the per protocol population of the BALLETS study, which consisted of 299 subjects spread evenly over four groups (placebo, two doses of balaglitazone, and one dose of piogliatazone) as previously described (Henriksen, 2011), all with baseline and up to six follow-up parameters related to blood sugar control and Pro-C6 determinations under therapy.
The analysis included subjects from the per protocol population having a baseline measurement of serum Pro-C6. Subjects were grouped into one of three tertiles based on their baseline Pro-C6 value. Tertile 1 included subjects with baseline serum Pro-C6 of 6.2 ng/mL or below; tertile 2 had baseline serum Pro-C6 of 6.3 ng/mL to 7.7 ng/mL, and tertile 3 had baseline serum Pro-C6 of 7.8 ng/mL or above. Baseline characteristics between the three subgroups were compared by analysis of variance (ANOVA), and comparison of the proportion of genders in each tertile was compared by Fisher's exact test.
Lower leg edema, when measured as volume increase due to water displacement, was correlated with baseline serum endotrophin tertiles. Glitazone therapy led to increased lower leg volume in the lower and middle tertile, while there were no differences between treatment and placebo groups in the upper tertile (FIG. 12A-12C). There were no significant differences in the occurrence of AEs or SAEs in the three different treatment groups when stratified according to endotrophin levels. The difference between the SAEs in Table 10 and the lower leg oedema reported in FIGS. 12A-12C is a function of the lower leg volume being a quantitative measure and the reporting of oedemas being a patient reported output (FIGS. 10A-10C).

[2] = system: around 10 kD bands in human serum and amniotic fluid; assay: Western blot of human serum and amniotic fluid; assay type: binding; settings: FIG. 2B
Sequence of around 10 kD bands in human serum and amniotic fluid (P12111 3112-3177 limits assumed): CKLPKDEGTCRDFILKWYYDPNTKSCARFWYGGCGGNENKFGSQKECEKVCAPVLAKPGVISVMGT
Procedure: Native reactivity of the chosen antibody was assessed using human serum pool and human amniotic fluid pool.

[3] = Tertile 1 baseline endotrophin, Pioglitazone 45 mg, n = 24
[4] = Tertile 2 baseline endotrophin, Pioglitazone 45 mg, n = 29
[5] = Tertile 3 baseline endotrophin, Pioglitazone 45 mg, n = 31
[6] = Tertile 1 baseline endotrophin, Balaglitazone 10 mg, n = 27
[7] = Tertile 1 baseline endotrophin, Balaglitazone 20 mg, n = 22
[8] = Tertile 2 baseline endotrophin, Balaglitazone 10 mg, n = 21
[9] = Tertile 2 baseline endotrophin, Balaglitazone 20 mg, n = 21
[10] = Tertile 3 baseline endotrophin, Balaglitazone 10 mg, n = 25
[11] = Tertile 3 baseline endotrophin, Balaglitazone 20 mg, n = 25

With `CCc1ccc(CCOc2ccc(CC3SC(=O)NC3=O)cc2)nc1` (stereo not drawn) [Pioglitazone, pioglitazone] the “All AEs, E” value [1, 3] was 45, the “All AEs, N (%)” value [1, 3] was 19 (79%) N (%) and the “Serious AEs, E” value [1, 3] was 1. The “Serious AEs, N (%)” value [1, 3] was 1 (4%) N (%), the “Severe AEs: Cardiac ischaemia, E” value [1, 3] was 0 and the “Severe AEs: Cardiac ischaemia, N (%)” value [1, 3] was 0 (0%) N (%). For the same molecule, the “Severe AEs: Heart failure, E” value [1, 3] was 0, the “Severe AEs: Heart failure, N (%)” value [1, 3] was 0 (0%) N (%) and the “Severe AEs: Peripheral oedema, E” value [1, 3] was 5. The “Severe AEs: Peripheral oedema, N (%)” value [1, 3] was 5 (21%) N (%), the “Total severe AEs, E” value [1, 3] was 5 and the “Total severe AEs, N (%)” value [1, 3] was 5 (21%) N (%). The “All AEs, N (%)” value [1, 4] was 17 (59%)^ N (%), the “Serious AEs, E” value [1, 4] was 3 and the “Serious AEs, N (%)” value [1, 4] was 2 (6%) N (%). For the same molecule, the “Severe AEs: Cardiac ischaemia, E” value [1, 4] was 1, the “Severe AEs: Cardiac ischaemia, N (%)” value [1, 4] was 1 (3%) N (%) and the “Severe AEs: Heart failure, E” value [1, 4] was 0. The “Severe AEs: Heart failure, N (%)” value [1, 4] was 0 (0%) N (%), the “Severe AEs: Peripheral oedema, E” value [1, 4] was 5 and the “Severe AEs: Peripheral oedema, N (%)” value [1, 4] was 5 (17%) N (%). For the same molecule, the “Total severe AEs, E” value [1, 4] was 6, the “Total severe AEs, N (%)” value [1, 4] was 5 (17%) N (%) and the “All AEs, N (%)” value [1, 5] was 25 (81%)^ N (%). The “Serious AEs, E” value [1, 5] was 6, the “Serious AEs, N (%)” value [1, 5] was 4 (13%) N (%) and the “Severe AEs: Cardiac ischaemia, E” value [1, 5] was 4. For the same molecule, the “Severe AEs: Cardiac ischaemia, N (%)” value [1, 5] was 3 (10%) N (%), the “Severe AEs: Heart failure, E” value [1, 5] was 1 and the “Severe AEs: Heart failure, N (%)” value [1, 5] was 1 (3%) N (%). The “Severe AEs: Peripheral oedema, E” value [1, 5] was 2, the “Severe AEs: Peripheral oedema, N (%)” value [1, 5] was 2 (6%) N (%) and the “Total severe AEs, E” value [1, 5] was 7. The “Total severe AEs, N (%)” value [1, 5] was 6 (19%) N (%).

In the case of `Cn1c(COc2ccc(CC3SC(=O)NC3=O)cc2)nc2ccccc2c1=O` (stereo not drawn) [Balaglitazone, balaglitazone], the “All AEs, E” value [1, 6] is reported as 38, the “All AEs, N (%)” value [1, 6] is reported as 20 (74%) N (%) and the “Serious AEs, E” value [1, 6] is reported as 1. The “Serious AEs, N (%)” value [1, 6] was 1 (4%) N (%), the “Severe AEs: Cardiac ischaemia, E” value [1, 6] was 0 and the “Severe AEs: Cardiac ischaemia, N (%)” value [1, 6] was 0 (0%) N (%). The “Severe AEs: Heart failure, E” value [1, 6] was 0, the “Severe AEs: Heart failure, N (%)” value [1, 6] was 0 (0%) N (%) and the “Severe AEs: Peripheral oedema, E” value [1, 6] was 2. The “Severe AEs: Peripheral oedema, N (%)” value [1, 6] was 2 (7%) N (%), the “Total severe AEs, E” value [1, 6] was 2 and the “Total severe AEs, N (%)” value [1, 6] was 2 (7%) N (%). For the same molecule, the “All AEs, E” value [1, 7] was 33, the “All AEs, N (%)” value [1, 7] was 17 (77%) N (%) and the “Serious AEs, E” value [1, 7] was 1. For the same molecule, the “Serious AEs, N (%)” value [1, 7] was 1 (5%) N (%), the “Severe AEs: Cardiac ischaemia, E” value [1, 7] was 2 and the “Severe AEs: Cardiac ischaemia, N (%)” value [1, 7] was 2 (9%) N (%). The “Severe AEs: Heart failure, E” value [1, 7] was 0, the “Severe AEs: Heart failure, N (%)” value [1, 7] was 0 (0%) N (%) and the “Severe AEs: Peripheral oedema, E” value [1, 7] was 2. For the same molecule, the “Severe AEs: Peripheral oedema, N (%)” value [1, 7] was 2 (9%) N (%), the “Total severe AEs, E” value [1, 7] was 4 and the “Total severe AEs, N (%)” value [1, 7] was 4 (18%) N (%). For the same molecule, the “All AEs, E” value [1, 8] was 35, the “All AEs, N (%)” value [1, 8] was 17 (81%) N (%) and the “Serious AEs, E” value [1, 8] was 1. For the same molecule, the “Serious AEs, N (%)” value [1, 8] was 1 (5%) N (%), the “Severe AEs: Cardiac ischaemia, E” value [1, 8] was 1 and the “Severe AEs: Cardiac ischaemia, N (%)” value [1, 8] was 1 (5%) N (%). The “Severe AEs: Heart failure, E” value [1, 8] was 0, the “Severe AEs: Heart failure, N (%)” value [1, 8] was 0 (0%) N (%) and the “Severe AEs: Peripheral oedema, E” value [1, 8] was 3. For the same molecule, the “Severe AEs: Peripheral oedema, N (%)” value [1, 8] was 3 (14%) N (%), the “Total severe AEs, E” value [1, 8] was 4 and the “Total severe AEs, N (%)” value [1, 8] was 4 (19%) N (%). For the same molecule, the “All AEs, E” value [1, 9] was 36, the “All AEs, N (%)” value [1, 9] was 15 (71%) N (%) and the “Serious AEs, E” value [1, 9] was 0. The “Serious AEs, N (%)” value [1, 9] was 0 (0%) N (%), the “Severe AEs: Cardiac ischaemia, E” value [1, 9] was 0 and the “Severe AEs: Cardiac ischaemia, N (%)” value [1, 9] was 0 (0%) N (%). The “Severe AEs: Heart failure, E” value [1, 9] was 0, the “Severe AEs: Heart failure, N (%)” value [1, 9] was 0 (0%) N (%) and the “Severe AEs: Peripheral oedema, E” value [1, 9] was 2. The “Severe AEs: Peripheral oedema, N (%)” value [1, 9] was 2 (10%) N (%), the “Total severe AEs, E” value [1, 9] was 2 and the “Total severe AEs, N (%)” value [1, 9] was 2 (10%) N (%). For the same molecule, the “All AEs, E” value [1, 10] was 55, the “All AEs, N (%)” value [1, 10] was 20 (60%) N (%) and the “Serious AEs, E” value [1, 10] was 1. The “Serious AEs, N (%)” value [1, 10] was 1 (4%) N (%), the “Severe AEs: Cardiac ischaemia, E” value [1, 10] was 0 and the “Severe AEs: Cardiac ischaemia, N (%)” value [1, 10] was 0 (0%) N (%). For the same molecule, the “Severe AEs: Heart failure, E” value [1, 10] was 0, the “Severe AEs: Heart failure, N (%)” value [1, 10] was 0 (0%) N (%) and the “Severe AEs: Peripheral oedema, E” value [1, 10] was 1. The “Severe AEs: Peripheral oedema, N (%)” value [1, 10] was 1 (8%) N (%), the “Total severe AEs, E” value [1, 10] was 1 and the “Total severe AEs, N (%)” value [1, 10] was 1 (8%) N (%). The “All AEs, E” value [1, 11] was 43, the “All AEs, N (%)” value [1, 11] was 20 (60%) N (%) and the “Serious AEs, E” value [1, 11] was 6. The “Serious AEs, N (%)” value [1, 11] was 6 (24%) N (%), the “Severe AEs: Cardiac ischaemia, E” value [1, 11] was 1 and the “Severe AEs: Cardiac ischaemia, N (%)” value [1, 11] was 1 (4%) N (%). For the same molecule, the “Severe AEs: Heart failure, E” value [1, 11] was 0, the “Severe AEs: Heart failure, N (%)” value [1, 11] was 0 (0%) N (%) and the “Severe AEs: Peripheral oedema, E” value [1, 11] was 1. For the same molecule, the “Severe AEs: Peripheral oedema, N (%)” value [1, 11] was 1 (4%) N (%), the “Total severe AEs, E” value [1, 11] was 2 and the “Total severe AEs, N (%)” value [1, 11] was 2 (8%) N (%).

B1: 10A3: mouse IgG1/kappa monoclonal antibody against the last 10 amino acids of C-terminal COL6A3 (…); heavy chain SEQ ID NO:5, light chain SEQ ID NO:9 (antibody)
heavy: EVQLQQSGPVMVKPGTSVKTSCKASGYTFTDFNMNWVKQSHGKSLEWIGAINPHNGATSYNQKFSGKATLTVDKSSSTAYMELNSLTSDDSAVYYCARWGNGKNSWGQGTTLTVSSAKTTPPSVYPLAPGSAAQTNSMVTLGCLVKGYFPEPVTVTWNSGSLSSGVHTFPAVLQSDLYTLSSSVTVPSSTWPSETVTCNVAHPASSTKVDKKIVPRDCGCKPCICTVPEVSSVFIFPPKPKDVLTITLTPKVTCVVVDISKDDPEVQFSWFVDDVEVHTAQTQPREEQFNSTFRSVSELPIMHQDWLNGKEFKCRVNSAAFPAPIEKTISKTKGRPKAPQVYTIPPPKEQMAKDKVSLTCMITDFFPEDITVEWQWNGQPAENYKNTQPIMDTDGSYFVYSKLNVQKSNWEAGNTFTCSVLHEGLHNHHTEKSLSHSPGK
light: DVVMTQTPLSLPVNLGDQASISCRSSQRIVHSNGITFLEWYLQKPGQSPKLLIYRVSNRFSGVPDRFSGSGSGTDFTLKISRVEAEDLGLYYCFQGSHVPLTFGAGTRLELKRADAAPTVSIFPPSSEQLTSGGASVVCFLNNFYPKDINVKWKIDGSERQNGVLNSWTDQDSKDSTYSMSSTLTLTKDEYERHNSYTCEATHKTSTSPIVKSFNRNEC
modifications: Heavy chain sequence of mouse IgG1 isotype of monoclonal antibody 10A3; Light chain sequence of mouse Kappa isotype of monoclonal antibody 10A3
In the case of B1, the “western blot signal in the presence of the standard peptide” value [2] is reported as “completely blocked” and the “bands recognized in western blot” value ([2]; human serum and amniotic fluid) is reported as “around 10 kD”.
